# Test results from patent US9902703B2, “Somatostatin modulators and uses thereof” (Crinetics Pharmaceuticals, Inc., priority 2015, dated 2018).
# Target: T1, human somatostatin receptor subtype 2 (Homo sapiens, UniProt P30874)
# T1 construct: expressed in transfected cells; host or cells: CHO (Chinese hamster ovary) cells, G-418 selected
# Assay: cAMP assay (functional assay for SSTR2 agonists)
# Format: cell-based
# Settings: CHO cells expressing human SSTR2; intracellular cAMP with forskolin, HTRF; read-out: SSTR2a EC50
# Description: Functional Assay for SSTR2 Agonists
# General overview: All five SSTR subtypes are Gi coupled G-protein coupled receptors (GPCRs) that lead to decreases in intracellular cyclic AMP (cAMP) when activated by an agonist. Therefore, measurement of intracellular cAMP levels can be used to assess whether compounds of the invention are agonists of SSTR subtypes (John Kelly, Troy Stevens, W. Joseph Thompson, and Roland Seifert, Current Protocols in Pharmacology, 2005, 2.2.1-2.2). One example of an intracellular cAMP assay is described below.
# One day prior to the assay, 40,000 Chinese hamster ovary (CHO) cells expressing the human somatostatin receptor subtype 2 are plated in each well of a 96-well tissue culture plate in DM-MEM growth media (Gibco) with the following additives: 10% fetal bovine serum (Gibco), 100 U/mL penicillin (Gibco), 100 ug/mL streptomycin (Gibco), 10 mM HEPES (Gibco), 1.2 mM sodium hydroxide, 0.5 mg/mL G-418 (Gibco)). The cells are cultured overnight at 37° C., 5% CO2 and 95% humidity. On the day of the assay, the media is aspirated and the cells are washed with 1× Dulbecco's phosphate buffered saline (Gibco). Next, 5 μL of assay buffer (1× Earle's Balanced Salt Solution (Gibco), 5 mM MgCl2, 10 mM HEPES, 0.1% bovine serum albumin, 0.2 mM 3-Isobutyl-1-methylxanthine (IBMX, Biomol Research Labs)) and forskolin is added. Various dilutions of the compounds of the invention are prepared in assay buffer and 5 μL of the dilutions are added to the cultured cells and incubated for 15 minutes at 37° C. […] 10 μL of lysis buffer (HRTF cAMP kit, Cisbio) containing cAMP detection and visualization antibodies are added and the assay is allowed incubate for 1-24 hours at room temperature. The intracellular cAMP concentrations are then measured using a commercially available detection kit (for example, the cAMP HTRF kit, Cisbio). The measured intracellular cAMP concentrations are plotted vs. the concentration of the compounds of the invention and the EC50 of the compounds are calculated using standard methods.
# T1 sequence (P30874 whole entry): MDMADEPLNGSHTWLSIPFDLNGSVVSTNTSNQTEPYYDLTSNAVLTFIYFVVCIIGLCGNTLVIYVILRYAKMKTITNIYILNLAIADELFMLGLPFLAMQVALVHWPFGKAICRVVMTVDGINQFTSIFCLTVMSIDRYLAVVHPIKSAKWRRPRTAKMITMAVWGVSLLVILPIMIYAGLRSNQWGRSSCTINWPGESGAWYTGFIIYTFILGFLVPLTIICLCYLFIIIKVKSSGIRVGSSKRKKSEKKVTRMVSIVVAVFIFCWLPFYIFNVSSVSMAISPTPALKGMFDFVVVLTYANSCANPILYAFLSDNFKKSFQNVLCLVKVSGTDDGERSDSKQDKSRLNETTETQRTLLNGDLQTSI
row,SMILES,EC50 [nM]
1,"Cc1cc(C)cc(N2C=Nc3cc(C)c(-c4cccc(O)c4)cc3C2C(=O)NC[C@@H]2CCCN2)c1 (stereo partly drawn) [Compound 1-51, 3-(3,5-dimethylphenyl)-6-(3-hydroxyphenyl)-7-methyl-N-[(2S)-pyrrolidin-2-ylmethyl]-3,4-dihydroquinazoline-4-carboxamide]",1000 to 10000
2,"Cc1cc(Cl)cc(N2C=Nc3ccc(-c4cccc(O)c4)cc3C2C(=O)N(C)C[C@@H]2CCCN2)c1 (stereo partly drawn) [Compound 1-45, 3-(3-chloro-5-methylphenyl)-6-(3-hydroxyphenyl)-N-methyl-N-[(2S)-pyrrolidin-2-ylmethyl]-3,4-dihydroquinazoline-4-carboxamide]",< 100
3,"Cc1cc(Cl)cc(N2C=Nc3cc(C)c(-c4c(C)cccc4F)cc3C2C(=O)N(C)C[C@@H]2CCCN2)c1 (stereo partly drawn) [Compound 2-12, 3-(3-chloro-5-methylphenyl)-6-(2-fluoro-6-methylphenyl)-N,7-dimethyl-N-[(2S)-pyrrolidin-2-ylmethyl]-3,4-dihydroquinazoline-4-carboxamide]",< 100
4,"Cc1cc(C)cc(N2C=Nc3cc(Cl)c(-c4cccc(O)c4)cc3C2C(=O)NCCN)c1 (stereo not shown) [Compound 1-3, N-(2-aminoethyl)-7-chloro-3-(3,5-dimethylphenyl)-6-(3-hydroxyphenyl)-3,4-dihydroquinazoline-4-carboxamide]",1000 to 10000
5,"Cc1cc(Cl)cc(N2C=Nc3cc(C)c(-c4cc(C)oc4C)cc3C2C(=O)N(C)C[C@@H]2CCCN2)c1 (stereo partly drawn) [Compound 2-25, 3-(3-chloro-5-methylphenyl)-6-(2,5-dimethylfuran-3-yl)-N,7-dimethyl-N-[(2S)-pyrrolidin-2-ylmethyl]-3,4-dihydroquinazoline-4-carboxamide]",100 to 1000
6,"Cc1cc(Cl)cc(N2C=Nc3cc(C)c(-c4cc(C(N)=O)ccc4Cl)cc3C2C(=O)N(C)C[C@@H]2CCCN2)c1 (stereo partly drawn) [Compound 2-29, 6-(5-carbamoyl-2-chlorophenyl)-3-(3-chloro-5-methylphenyl)-N,7-dimethyl-N-[(2S)-pyrrolidin-2-ylmethyl]-3,4-dihydroquinazoline-4-carboxamide]",< 100
7,"Cc1cc(Cl)cc(N2C=Nc3cc(C)c(-c4cc(F)ccc4Cl)cc3C2C(=O)N(C)C[C@@H]2CCCN2)c1 (stereo partly drawn) [Compound 1-35, 6-(2-chloro-5-fluorophenyl)-3-(3-chloro-5-methylphenyl)-N,7-dimethyl-N-[(2S)-pyrrolidin-2-ylmethyl]-3,4-dihydroquinazoline-4-carboxamide]",< 100
8,"COc1ccc(Cl)c(-c2cc3c(cc2C)N=CN(c2cc(C)cc(Cl)c2)C3C(=O)N(C)C[C@@H]2CCCN2)c1 (stereo partly drawn) [Compound 2-3, 6-(2-chloro-5-methoxyphenyl)-3-(3-chloro-5-methylphenyl)-N,7-dimethyl-N-[(2S)-pyrrolidin-2-ylmethyl]-3,4-dihydroquinazoline-4-carboxamide]",< 100
9,"Cc1cc(Cl)cc(N2C=Nc3cc(C)c(-c4cccc(CC(=O)O)c4)cc3C2C(=O)N(C)C[C@@H]2CCCN2)c1 (stereo partly drawn) [Compound 1-53, 2-{3-[3-(3-chloro-5-methylphenyl)-7-methyl-4-{methyl[(2S)-pyrrolidin-2-ylmethyl]carbamoyl}-3,4-dihydroquinazolin-6-yl]phenyl}acetic acid]",< 100
10,"Cc1cc(Cl)cc(N2C=Nc3cc(C)c(-c4cccc(S(C)(=O)=O)c4)cc3C2C(=O)N(C)C[C@@H]2CCCN2)c1 (stereo partly drawn) [Compound 1-46, 3-(3-chloro-5-methylphenyl)-6-(3-methanesulfonylphenyl)-N,7-dimethyl-N-[(2S)-pyrrolidin-2-ylmethyl]-3,4-dihydroquinazoline-4-carboxamide]",100 to 1000
11,"Cc1cc(Cl)cc(N2C=Nc3cc(C)c(-c4ccc(O)c(F)c4)cc3C2C(=O)N(C)C[C@@H]2CCCN2)c1 (stereo partly drawn) [Compound 2-32, 3-(3-chloro-5-methylphenyl)-6-(3-fluoro-4-hydroxyphenyl)-N,7-dimethyl-N-[(2S)-pyrrolidin-2-ylmethyl]-3,4-dihydroquinazoline-4-carboxamide]",< 100
12,"Cc1cc(Cl)cc(N2C=Nc3cc(C)c(-c4cc(F)ccc4O)cc3C2C(=O)N(C)C[C@@H]2CCCN2)c1 (single isomer, unassigned) [Compound 3-2]",< 100
13,"Cc1cc(F)cc(N2C=Nc3cc(C)c(-c4cccc(O)c4)cc3C2C(=O)N(C)C[C@@H]2CCCN2)c1 (stereo partly drawn) [Compound 1-25, 3-(3-fluoro-5-methylphenyl)-6-(3-hydroxyphenyl)-N,7-dimethyl-N-[(2S)-pyrrolidin-2-ylmethyl]-3,4-dihydroquinazoline-4-carboxamide]",< 100
14,"Cc1cc(Cl)cc(N2C=Nc3cc(C)c(-c4cc(O)cc(F)c4)cc3C2C(=O)N(C)C[C@@H]2CCCN2)c1 (stereo partly drawn) [Compound 2-21, 3-(3-chloro-5-methylphenyl)-6-(3-fluoro-5-hydroxyphenyl)-N,7-dimethyl-N-[(2S)-pyrrolidin-2-ylmethyl]-3,4-dihydroquinazoline-4-carboxamide]",< 100
15,"Cc1cc(Cl)cc(N2C=Nc3cc(C)c(-c4ccccc4Cl)cc3C2C(=O)N(C)C[C@@H]2CCCN2)c1 (stereo partly drawn) [Compound 1-36, 3-(3-chloro-5-methylphenyl)-6-(2-chlorophenyl)-N,7-dimethyl-N-[(2S)-pyrrolidin-2-ylmethyl]-3,4-dihydroquinazoline-4-carboxamide]",< 100
16,"Cc1cc(Cl)cc(N2C=Nc3cc(C)c(-c4cc(F)cc(C#N)c4)cc3C2C(=O)N(C)C[C@@H]2CCCN2)c1 (stereo partly drawn) [Compound 1-38, 3-(3-chloro-5-methylphenyl)-6-(3-cyano-5-fluorophenyl)-N,7-dimethyl-N-[(2S)-pyrrolidin-2-ylmethyl]-3,4-dihydroquinazoline-4-carboxamide]",< 100
17,"Cc1cc(Cl)cc(N2C=Nc3cc(C)c(-c4cccc(O)c4)cc3C2C(=O)N(C)C[C@@H]2CC(F)(F)CN2)c1 (stereo partly drawn) [Compound 1-55, 3-(3-chloro-5-methylphenyl)-N-{[(2S)-4,4-difluoropyrrolidin-2-yl]methyl}-6-(3-hydroxyphenyl)-N,7-dimethyl-3,4-dihydroquinazoline-4-carboxamide]",< 100

# The remaining lines, values ahead:
row,EC50 [nM],SMILES
1,< 100,"Cc1cc(Cl)cc(N2C=Nc3cc(C)c(-c4cccc(F)c4C)cc3C2C(=O)N(C)C[C@@H]2CCCN2)c1 (stereo partly drawn) [Compound 2-7, 3-(3-chloro-5-methylphenyl)-6-(3-fluoro-2-methylphenyl)-N,7-dimethyl-N-[(2S)-pyrrolidin-2-ylmethyl]-3,4-dihydroquinazoline-4-carboxamide]"
2,< 100,"CC[C@H](N)CN(C)C(=O)C1c2cc(-c3c(F)ccc(O)c3F)c(C)cc2N=CN1c1cc(C)cc(C)c1 (stereo partly drawn) [Compound 1-15, N-[(2S)-2-aminobutyl]-6-(2,6-difluoro-3-hydroxyphenyl)-3-(3,5-dimethylphenyl)-N,7-dimethyl-3,4-dihydroquinazoline-4-carboxamide]"
3,< 100,"CC[C@H](N)CN(C)C(=O)C1c2cc(-c3cccc(O)c3)c(C)cc2N=CN1c1cc(C)cc(Cl)c1 (stereo partly drawn) [Compound 1-13, N-[(2S)-2-aminobutyl]-3-(3-chloro-5-methylphenyl)-6-(3-hydroxyphenyl)-N,7-dimethyl-3,4-dihydroquinazoline-4-carboxamide]"
4,100 to 1000,"CC[C@H](N)CN(C)C(=O)C1c2cc(-c3cc(O)c(F)cc3F)c(C)cc2N=CN1c1cc(C)cc(C)c1 (stereo partly drawn) [Compound 1-14, N-[(2S)-2-aminobutyl]-6-(2,4-difluoro-5-hydroxyphenyl)-3-(3,5-dimethylphenyl)-N,7-dimethyl-3,4-dihydroquinazoline-4-carboxamide]"
5,< 100,"Cc1cc(C)cc(N2C=Nc3cc(C)c(-c4cccc(O)c4)cc3C2C(=O)N(C)C[C@@H]2CCCN2)c1 (stereo partly drawn) [Compound 1-12, 3-(3,5-dimethylphenyl)-6-(3-hydroxyphenyl)-N,7-dimethyl-N-[(2S)-pyrrolidin-2-ylmethyl]-3,4-dihydroquinazoline-4-carboxamide]"
6,< 100,"CC[C@H](N)CN(C)C(=O)C1c2cc(-c3cc(O)ccc3F)c(C)cc2N=CN1c1cc(C)cc(C)c1 (stereo partly drawn) [Compound 1-10, N-[(2S)-2-aminobutyl]-3-(3,5-dimethylphenyl)-6-(2-fluoro-5-hydroxyphenyl)-N,7-dimethyl-3,4-dihydroquinazoline-4-carboxamide]"
7,< 100,"Cc1cc(Cl)cc(N2C=Nc3cc(C)c(-c4cccc(C#N)c4F)cc3C2C(=O)N(C)C[C@@H]2CCCN2)c1 (stereo partly drawn) [Compound 1-41, 3-(3-chloro-5-methylphenyl)-6-(3-cyano-2-fluorophenyl)-N,7-dimethyl-N-[(2S)-pyrrolidin-2-ylmethyl]-3,4-dihydroquinazoline-4-carboxamide]"
8,< 100,"CC[C@H](N)CN(C)C(=O)C1c2cc(-c3cccc(O)c3F)c(C)cc2N=CN1c1cc(C)cc(C)c1 (stereo partly drawn) [Compound 1-11, N-[(2S)-2-aminobutyl]-3-(3,5-dimethylphenyl)-6-(2-fluoro-3-hydroxyphenyl)-N,7-dimethyl-3,4-dihydroquinazoline-4-carboxamide]"
